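Protocol summary: plate cells (96-well), add compound at 5 concentrations, incubate 48 h, interpolate endpoints linearly. TGI marks complete inhibition of growth.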

Some test systems named below: 786-0 renal; A549 NSCLC; COLO 205 colon; HT29 colon; MDA-N; MOLT-4 leukemia; NCI-H23 lung; NCI-H460 lung; NCI-H522 lung; OVCAR-8 ovarian; SNB-19 CNS.
What all share (experiment): NCI anticancer screen, dose series, 48 h

On to `O=[N+]([O-])C(=C(N1CCOCC1)N1CCOCC1)/C(Cl)=C(\Cl)Br`, for which the TGI in the assay on 786-0 renal was 58.4 µM; in the assay with A549 NSCLC, above 100 µM; with COLO 205 colon, 29.6 µM; in the assay on HT29 colon, 44.9 µM; in the assay on MDA-N, 70.6 µM; in the assay with MOLT-4 leukemia it was 33.9 µM. Moreover, the TGI is 34.1 µM in the assay on NCI-H23 lung; above 100 µM in the assay on NCI-H460 lung; 6.71 µM in the assay on NCI-H522 lung; 64 µM in the assay on OVCAR-8 ovarian; above 100 µM with SNB-19 CNS.
Take `COc1ccccc1C1ON=C(c2ccc([N+](=O)[O-])cc2)N1C12CC3CC(CC(C3)C1)C2` (configuration not stated): the TGI with 786-0 renal, in the assay on A549 NSCLC, in the assay with COLO 205 colon, with HT29 colon, in the assay with MDA-N and in the assay with MOLT-4 leukemia was above 100 µM throughout. The TGI in the assay with NCI-H23 lung, with NCI-H460 lung, with NCI-H522 lung, with OVCAR-8 ovarian and in the assay on SNB-19 CNS was above 100 µM in each case.
Regarding `CC(=O)NC1(c2cc3ccccc3s2)CCCCCC1`, the TGI is above 100 µM in the assay with 786-0 renal; above 100 µM in the assay on A549 NSCLC; 50 µM with COLO 205 colon; above 100 µM with HT29 colon; above 100 µM with MDA-N; 44.4 µM in the assay on MOLT-4 leukemia. For the same molecule, the TGI with NCI-H23 lung is above 100 µM; with NCI-H460 lung it was above 100 µM; in the assay on NCI-H522 lung, 39.1 µM; in the assay with OVCAR-8 ovarian, above 100 µM; in the assay on SNB-19 CNS, above 100 µM.
As to `O=C1c2ccccc2-c2nnc3c(c21)-c1ccccc1C3`, the TGI in the assay with 786-0 renal is above 100 µM; with A549 NSCLC it was above 100 µM; in the assay with COLO 205 colon, above 100 µM; with HT29 colon, above 100 µM; in the assay with MDA-N it was above 100 µM; with MOLT-4 leukemia, 80.8 µM. For the same molecule, the TGI in the assay with NCI-H23 lung, in the assay with NCI-H460 lung, with NCI-H522 lung, in the assay with OVCAR-8 ovarian and in the assay on SNB-19 CNS was above 100 µM in each case.
With `CC(C)=CCC/C(C)=C/CC/C(C)=C/CC/C(C)=C/CC/C(C)=C/CC/C(C)=C/CC/C(C)=C/CC/C(C)=C/CC/C(C)=C/CO`, the TGI with 786-0 renal, with A549 NSCLC, in the assay on COLO 205 colon, in the assay on HT29 colon, with MDA-N and in the assay with MOLT-4 leukemia was above 100 µM throughout. Moreover, the TGI with NCI-H23 lung, in the assay with NCI-H460 lung, in the assay with NCI-H522 lung, with OVCAR-8 ovarian and with SNB-19 CNS was above 100 µM throughout.
As to `NC(Cc1ccc(N(CCCl)CCCl)cc1)C(=O)NC(CCC(=O)O)C(=O)O` (configuration not stated), the TGI in the assay on 786-0 renal, in the assay on A549 NSCLC, in the assay with COLO 205 colon, in the assay on HT29 colon, in the assay with MDA-N and in the assay on MOLT-4 leukemia was above 100 µM throughout. Besides, the TGI in the assay on NCI-H23 lung, with NCI-H460 lung, in the assay on NCI-H522 lung, in the assay with OVCAR-8 ovarian and with SNB-19 CNS was above 100 µM in each case.
For `COc1cc(NCCC2CCCCN2)c2ncccc2c1` (configuration not stated), the TGI in the assay with 786-0 renal is above 100 µM; with A549 NSCLC, above 100 µM; in the assay with COLO 205 colon it was 28.6 µM; in the assay with HT29 colon, above 100 µM; with MDA-N, above 100 µM; in the assay with MOLT-4 leukemia, above 68.6 µM. Further, the TGI in the assay on NCI-H23 lung, in the assay on NCI-H460 lung, in the assay with NCI-H522 lung, in the assay with OVCAR-8 ovarian and in the assay with SNB-19 CNS was above 100 µM each time.
For the molecule `COc1cc(C2c3cc4c(cc3OC(NNS(=O)(=O)c3ccc(C)cc3)C2C)OCO4)cc(OC)c1O` (configuration not stated), the TGI in the assay with 786-0 renal was 42.9 µM; with A549 NSCLC it was above 100 µM; in the assay on COLO 205 colon, 43.5 µM; with HT29 colon, 49.6 µM; in the assay with MDA-N it was 51.4 µM; with MOLT-4 leukemia, 49.5 µM. The TGI is 76.4 µM with NCI-H23 lung; 17.5 µM in the assay on NCI-H460 lung; 69.1 µM with NCI-H522 lung; above 100 µM in the assay on OVCAR-8 ovarian; 56.4 µM in the assay on SNB-19 CNS.
As for `O=C1C(=O)N(c2cccc(C(F)(F)F)c2)C(=S)N1c1ccccc1`, the TGI was above 100 µM in the assay on 786-0 renal; above 100 µM with A549 NSCLC; 30.5 µM in the assay on COLO 205 colon; above 100 µM with HT29 colon; 71.9 µM with MDA-N; above 100 µM in the assay with MOLT-4 leukemia. For the same molecule, the TGI in the assay on NCI-H23 lung was 82.9 µM; in the assay on NCI-H460 lung it was 6.49 µM; in the assay on NCI-H522 lung, 28 µM; in the assay on OVCAR-8 ovarian it was above 100 µM; with SNB-19 CNS, above 100 µM.
`O=C1C2=C(CC3=C(C2)CS(=O)(=O)C3)C(=O)C2=C1CC1=C(C2)CS(=O)(=O)C1`: the TGI with 786-0 renal is 40.6 µM; in the assay on A549 NSCLC, above 100 µM; in the assay on COLO 205 colon, 35.7 µM; with HT29 colon, 41.4 µM; with MDA-N, 20.8 µM; with MOLT-4 leukemia, above 65.6 µM. For the same molecule, the TGI in the assay on NCI-H23 lung was 48.4 µM; in the assay with NCI-H460 lung, above 100 µM; in the assay with NCI-H522 lung, 22.2 µM; with OVCAR-8 ovarian it was above 59.7 µM; in the assay with SNB-19 CNS it was 35.5 µM.
In the case of `CC(=O)O[C@H]1CC[C@@]2(C)C(=CC[C@@H]3[C@@H]2CC[C@]2(C)c4c(C)nn(-c5ccccc5)c4C[C@@H]32)C1`, the TGI in the assay on 786-0 renal is 35.9 µM; with A549 NSCLC, above 100 µM; with COLO 205 colon, 36.2 µM; with HT29 colon, above 100 µM; with MDA-N it was above 100 µM; in the assay with MOLT-4 leukemia, above 100 µM. In addition, the TGI in the assay on NCI-H23 lung was 31.3 µM; with NCI-H460 lung it was 47.9 µM; with NCI-H522 lung it was 45.3 µM; in the assay with OVCAR-8 ovarian, above 100 µM; with SNB-19 CNS, above 100 µM.
For `S=C1CCSc2c(ccc3ccccc23)N1`, the TGI in the assay on 786-0 renal, in the assay with A549 NSCLC, in the assay on COLO 205 colon, with HT29 colon, in the assay on MDA-N and in the assay with MOLT-4 leukemia was above 100 µM in each case. Also, the TGI with NCI-H23 lung, in the assay on NCI-H460 lung, in the assay on NCI-H522 lung, in the assay with OVCAR-8 ovarian and with SNB-19 CNS was above 100 µM in each case.

These data come from PubChem BioAssay (NCI).
